Measured values taken from the supplement of paper PMC11208160.

Assay: recombinant barcode read abundance after kanamycin selection (control-corrected) (log10(CPM+1)); higher = more efficient recombination; sequences stand for … in AGTGCAGAGAAAATCGGCCAGTTTTCTCTGCCTGCAGTCCGCATGCCGT…AGATTTATGCAGCGGACTGCCTTTCTCCCAAAGTGATAAACCGGACAGTATCATGGACCGGTTTTCCCGGTAATCCGTATTTGCAAGGTTGGTTTCACT; site = the 11-nt target
Outline: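 This pooled E. coli screen matched targets with IS621 bridge RNA target-binding loops. Plating was done in duplicate on chloramphenicol/ampicillin LB agar as a control and on chloramphenicol/ampicillin/kanamycin plus 0.1 mM IPTG. Recombination efficiency reflects barcode counts at recombinant junctions as counts per million, averaged and control-corrected. The figures are log10(CPM+1).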
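Further: IS621 recombinase and bridge RNA in Escherichia coli cells.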

Point of comparison: “CGGCCTACTTGGGTTCTAACCTGTTGCTT (site CGGCCTACTAA)”, “recombinant barcode read abundance (log10)” value 0.659. Against it:
- CGGACGACTTGGGTTCTAACCTGTTGCCT (site CGGACGGCTAG) — lower, 0.0816
- CGGACGACTTGGGTTCTAACCTGTTGCCT (site CGGACGTCTAG) — lower, 0.111
- CGGAGCCCTTGGGTTCTAACCTGTTGCGG (site AGGAGCCCTTC) — lower, 0.0728
- CGGAGCCCTTGGGTTCTAACCTGTTGCGG (site CGGAGCCCTCC) — higher, 1.82
- CGGATCGCTTGGGTTCTAACCTGTTGCCT (site CGGATAGCTAG) — lower, 0.079
- CGGATCGCTTGGGTTCTAACCTGTTGCCT (site CGGATCGCTAG) — higher, 1.76
- CGGATCGCTTGGGTTCTAACCTGTTGCCT (site CGGATGGCTAG) — lower, 0.153
- CGGATCGCTTGGGTTCTAACCTGTTGCCT (site CGGATTGCTAG) — lower, 0.271
- CGGCATACTTGGGTTCTAACCTGTTGCCT (site CAGCATACTAG) — lower, 0.0864
- CGGCATACTTGGGTTCTAACCTGTTGCCT (site CCGCATACTAG) — lower, 0.0245
- CGGCATACTTGGGTTCTAACCTGTTGCCT (site CGGCATACTAG) — within 0.2 log units, 0.66
- CGGCATACTTGGGTTCTAACCTGTTGCCT (site CTGCATACTAG) — lower, 0
- CGGCCACCTTGGGTTCTAACCTGTTGCCT (site CGGCCACCTAG) — higher, 2.02
- CGGCCACCTTGGGTTCTAACCTGTTGCCT (site TGGCCACCTAG) — lower, 0.0718
- CGGCCTACTTGGGTTCTAACCTGTTGCTT (site CGGCTTCCTAA) — lower, 0.137
- CGGCGTCCTTGGGTTCTAACCTGTTGCCG (site CGGCGTCCTAG) — within 0.2 log units, 0.498
- CGGCGTCCTTGGGTTCTAACCTGTTGCCG (site CGGCGTCCTCG) — lower, 0.197
- CGGCTGTCTTGGGTTCTAACCTGTTGCCT (site CGGCTGTCTAG) — higher, 1.28
- CGGCTGTCTTGGGTTCTAACCTGTTGCCT (site GTAGGAACTCA) — lower, 0.0275
- CGGCTTCCTTGGGTTCTAACCTGTTGCTT (site CGGCCTACTAA) — lower, 0.209
- CGGCTTCCTTGGGTTCTAACCTGTTGCTT (site CGGCTTCCTAA) — lower, 0.104
- CGGGCCTCTTGGGTTCTAACCTGTTGCAC (site CGGGCCTCTGT) — higher, 3.19
- CGGGCCTCTTGGGTTCTAACCTGTTGCAC (site CGGTCCTCTGC) — lower, 0.209
- CGGGCCTCTTGGGTTCTAACCTGTTGCTC (site CGGGCCTCTAA) — within 0.2 log units, 0.752
- CGGGCCTCTTGGGTTCTAACCTGTTGCTC (site CGGGCCTCTCA) — lower, 0.0404
- CGGGCCTCTTGGGTTCTAACCTGTTGCTC (site CGGGCCTCTGA) — higher, 1.23
- CGGGCCTCTTGGGTTCTAACCTGTTGCTC (site CGGGCCTCTTA) — lower, 0.0944
- CGGTACCCTTGGGTTCTAACCTGTTGCGG (site CAGCACCCTCC) — within 0.2 log units, 0.64
- CGGTACCCTTGGGTTCTAACCTGTTGCGG (site CGGTACCCTCC) — higher, 3.11
- CGGTCCGCTTGGGTTCTAACCTGTTGCCT (site AGATCCGCTAG) — lower, 0.103
- CGGTCCGCTTGGGTTCTAACCTGTTGCCT (site CGGTCCGCTAG) — higher, 1.52
- CGGTCGCCTTGGGTTCTAACCTGTTGCAT (site CGGTCGCCTAT) — within 0.2 log units, 0.839
- CGGTCGCCTTGGGTTCTAACCTGTTGCAT (site CGGTTGCCTAC) — lower, 0.153
- CGTAAATCTTGGGTTCTAACCTGTTGCCT (site CGAAAATCTAG) — lower, 0.0185
- CGTAAATCTTGGGTTCTAACCTGTTGCCT (site CGCAAATCTAG) — lower, 0.0232
- CGTAAATCTTGGGTTCTAACCTGTTGCCT (site CGGAAATCTAG) — lower, 0.15
- CGTAAATCTTGGGTTCTAACCTGTTGCCT (site CGTAAATCTAG) — lower, 0.146
- CGTACCTCTTGGGTTCTAACCTGTTGCTA (site CGTACCTCTAA) — lower, 0.124
- CGTACCTCTTGGGTTCTAACCTGTTGCTA (site CGTACCTCTCA) — lower, 0.123
- CGTACCTCTTGGGTTCTAACCTGTTGCTA (site CGTACCTCTGA) — lower, 0.0598
- CGTACCTCTTGGGTTCTAACCTGTTGCTA (site CGTACCTCTTA) — lower, 0.166
- CGTACCTCTTGGGTTCTAACCTGTTGCTT (site CGTACCTCTAA) — within 0.2 log units, 0.579
- CGTACCTCTTGGGTTCTAACCTGTTGCTT (site CGTACCTCTCA) — lower, 0.125
- CGTACCTCTTGGGTTCTAACCTGTTGCTT (site CGTACCTCTGA) — lower, 0.406
- CGTACCTCTTGGGTTCTAACCTGTTGCTT (site CGTACCTCTTA) — lower, 0.127
- CGTACTACTTGGGTTCTAACCTGTTGCAC (site CGTACTACTGT) — lower, 0.0785
- CGTACTACTTGGGTTCTAACCTGTTGCAC (site GGTACTACTAT) — lower, 0.128
- CGTCAACCTTGGGTTCTAACCTGTTGCCT (site CGTCAACCTAG) — lower, 0.0446
- CGTCAACCTTGGGTTCTAACCTGTTGCCT (site CGTCACCCTAG) — lower, 0.117
- CGTCAACCTTGGGTTCTAACCTGTTGCCT (site CGTCAGCCTAG) — lower, 0.177
- CGTCAACCTTGGGTTCTAACCTGTTGCCT (site CGTCATCCTAG) — lower, 0.115
- CGTCACACTTGGGTTCTAACCTGTTGCCT (site CGACACACTAG) — lower, 0.013
- CGTCACACTTGGGTTCTAACCTGTTGCCT (site CGCCACACTAG) — lower, 0.107
- CGTCACACTTGGGTTCTAACCTGTTGCCT (site CGGCACACTAG) — lower, 0.052
- CGTCACACTTGGGTTCTAACCTGTTGCCT (site CGTCACACTAG) — lower, 0.013
- CGTCCGACTTGGGTTCTAACCTGTTGCAT (site CGTACGACTAT) — lower, 0.0562
- CGTCCGACTTGGGTTCTAACCTGTTGCAT (site CGTCCGACTAT) — lower, 0.113
- CGTCCGACTTGGGTTCTAACCTGTTGCAT (site CGTGCGACTAT) — lower, 0.0838
- CGTCCGACTTGGGTTCTAACCTGTTGCAT (site CGTTCGACTAT) — lower, 0
- CGTCGGGCTTGGGTTCTAACCTGTTGCAG (site CATCGGGCTCT) — lower, 0.367
- CGTCGGGCTTGGGTTCTAACCTGTTGCAG (site CCTCGGGCTCT) — lower, 0.107
- CGTCGGGCTTGGGTTCTAACCTGTTGCAG (site CGTCGGGCTCT) — higher, 1.38
- CGTCGGGCTTGGGTTCTAACCTGTTGCAG (site CTTCGGGCTCT) — lower, 0.258
- CGTCTACCTTGGGTTCTAACCTGTTGCCT (site AGTCTACCTAG) — lower, 0.0669
- CGTCTACCTTGGGTTCTAACCTGTTGCCT (site CGTCTACCTAG) — lower, 0.333
